The test system of the experiment is BDF1 mice, L1210 leukemia sc, survival T/C. Briefly: NCI In Vivo Anticancer Drug Screen. Data for tumor model L1210 Leukemia (subcutaneous) in B6D2F1 (BDF1) mice. Particulars: higher = longer survival. Put shortly:
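Read-out: T/C ratio, i.e. survival or tumor size in treated mice over that in vehicle-treated controls, from mice bearing transplantable tumors.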

Values joined by “and” are separate entries in the source; they are usually repeats but may differ in a detail not shown here. Equal entries are not always repeated. Inconclusive results and toxic doses are left out.

As to `O=C(Nc1ccc(C2=NCCN2)cc1)c1ccc(C(=O)Nc2ccc(C3=NCCN3)cc2)cc1`, the T/C by setting is: (endpoint: median survival time, dose: 3.0 mg/kg/injection, schedule: Q01DX Z (sc), vehicle: saline) 100 % of control; (endpoint: median survival time, dose: 5.0 mg/kg/injection, schedule: Q01DX Z (sc), vehicle: saline) 100 % of control and 104 % of control; (endpoint: median survival time, dose: 8.4 mg/kg/injection, schedule: Q01DX Z (sc), vehicle: saline) 109 % of control; (endpoint: median survival time, dose: 14.0 mg/kg/injection, schedule: Q01DX Z (sc), vehicle: saline) 104 % of control; (endpoint: median survival time, dose: 23.0 mg/kg/injection, schedule: Q01DX Z (ip), vehicle: water) 100 % of control; (endpoint: median survival time, dose: 23.0 mg/kg/injection, schedule: Q01DX Z (sc), vehicle: saline) 104 % of control and 109 % of control. For the same compound, the T/C runs as follows: (endpoint: median survival time, dose: 39.0 mg/kg/injection, schedule: Q01DX Z (ip), vehicle: water) 100 % of control; (endpoint: median survival time, dose: 39.0 mg/kg/injection, schedule: Q01DX Z (sc), vehicle: saline) 100 % of control; (endpoint: median survival time, dose: 39.0 mg/kg/injection, schedule: Q01DX Z (sc), vehicle: water) 100 % of control; (endpoint: median survival time, dose: 65.0 mg/kg/injection, schedule: Q01DX Z (ip), vehicle: water) 110 % of control; (endpoint: median survival time, dose: 65.0 mg/kg/injection, schedule: Q01DX Z (sc), vehicle: saline) 100 % of control and 104 % of control; (endpoint: median survival time, dose: 108.0 mg/kg/injection, schedule: Q01DX Z (sc), vehicle: saline) 100 % of control and 104 % of control. For the same compound, the T/C reads like this: (endpoint: median survival time, dose: 180.0 mg/kg/injection, schedule: Q01DX Z (ip), vehicle: water) 115 % of control; (endpoint: median survival time, dose: 180.0 mg/kg/injection, schedule: Q01DX Z (sc), vehicle: saline) 104 % of control; (endpoint: median survival time, dose: 200.0 mg/kg/injection, schedule: Q01DX Z (sc), vehicle: water) 110 % of control and 100 % of control; (endpoint: median survival time, dose: 300.0 mg/kg/injection, schedule: Q01DX Z (ip), vehicle: water) 185 % of control; (endpoint: median survival time, dose: 300.0 mg/kg/injection, schedule: Q01DX Z (sc), vehicle: saline) 104 % of control; (endpoint: median survival time, dose: 300.0 mg/kg/injection, schedule: Q01DX Z (sc), vehicle: water) 100 % of control. For the same compound, the T/C by setting is: (endpoint: median survival time, dose: 400.0 mg/kg/injection, schedule: Q01DX Z (sc), vehicle: water) 205 % of control and 105 % of control; (endpoint: median survival time, dose: 800.0 mg/kg/injection, schedule: Q01DX Z (sc), vehicle: water) 170 % of control and 220 % of control.
As to `COC(=N)N`, the T/C is, setting by setting: (endpoint: median survival time, dose: 1.8 mg/kg/injection, schedule: Q01DX Z (sc), vehicle: methylcellulose (MC)) 100 % of control; (endpoint: median survival time, dose: 3.0 mg/kg/injection, schedule: Q01DX Z (sc), vehicle: methylcellulose (MC)) 100 % of control.
Regarding `Cc1c2ccncc2c(C)c2c1[nH]c1ccccc12`, the T/C runs as follows: (endpoint: median survival time, dose: 5.0 mg/kg/injection, schedule: Q03HX008 (ip), vehicle: steriod suspending solution) 111 % of control; (endpoint: median survival time, dose: 5.0 mg/kg/injection, schedule: Q03HX008 (sc), vehicle: steriod suspending solution) 100 % of control; (endpoint: median survival time, dose: 10.0 mg/kg/injection, schedule: Q03HX008 (ip), vehicle: steriod suspending solution) 111 % of control; (endpoint: median survival time, dose: 10.0 mg/kg/injection, schedule: Q03HX008 (sc), vehicle: steriod suspending solution) 111 % of control; (endpoint: median survival time, dose: 20.0 mg/kg/injection, schedule: Q03HX008 (sc), vehicle: steriod suspending solution) 111 % of control; (endpoint: median survival time, dose: 40.0 mg/kg/injection, schedule: Q03HX008 (ip), vehicle: steriod suspending solution) 150 % of control.
Regarding `O=c1cnn(C2OC(CO)C(O)C2O)c(=O)[nH]1` (configuration not stated), the T/C by setting is: (endpoint: median survival time, dose: 37.5 mg/kg/injection, schedule: Q01DX009 (ip), vehicle: water) 114 % of control; (endpoint: median survival time, dose: 75.0 mg/kg/injection, schedule: Q01DX009 (ip), vehicle: water) 118 % of control and 121 % of control; (endpoint: median survival time, dose: 75.0 mg/kg/injection, schedule: Q01DX009 (sc), vehicle: water) 120 % of control; (endpoint: median survival time, dose: 108.0 mg/kg/injection, schedule: Q01DX Z (sc), vehicle: other) 120 % of control; (endpoint: median survival time, dose: 150.0 mg/kg/injection, schedule: Q01DX009 (ip), vehicle: water) 117 % of control and 120 % of control; (endpoint: median survival time, dose: 150.0 mg/kg/injection, schedule: Q01DX009 (sc), vehicle: water) 121 % of control and 122 % of control. Further, the T/C reads like this: (endpoint: median survival time, dose: 180.0 mg/kg/injection, schedule: Q01DX Z (sc), vehicle: other) 120 % of control; (endpoint: median survival time, dose: 300.0 mg/kg/injection, schedule: Q01DX009 (ip), vehicle: water) 117 % of control and 123 % of control; (endpoint: median survival time, dose: 300.0 mg/kg/injection, schedule: Q01DX009 (sc), vehicle: water) 117 % of control and 122 % of control; (endpoint: median survival time, dose: 300.0 mg/kg/injection, schedule: Q01DX Z (sc), vehicle: other) 120 % of control; (endpoint: median survival time, dose: 500.0 mg/kg/injection, schedule: Q01DX Z (sc), vehicle: other) 120 % of control; (endpoint: median survival time, dose: 600.0 mg/kg/injection, schedule: Q01DX009 (ip), vehicle: water) 118 % of control. Further, the T/C (endpoint: median survival time, dose: 600.0 mg/kg/injection, schedule: Q01DX009 (sc), vehicle: water) is 117 % of control; the T/C (endpoint: median survival time, dose: 833.0 mg/kg/injection, schedule: Q01DX Z (sc), vehicle: other) is 110 % of control; the T/C (endpoint: median survival time, dose: 1000.0 mg/kg/injection, schedule: Q01DX Z (sc), vehicle: other) is 122 % of control; the T/C (endpoint: median survival time, dose: 1200.0 mg/kg/injection, schedule: Q01DX009 (ip), vehicle: water) was 104 % of control and 117 % of control; the T/C (endpoint: median survival time, dose: 1200.0 mg/kg/injection, schedule: Q01DX009 (sc), vehicle: water) was 114 % of control.
In the case of `C[C@H](CN1CC(=O)NC(=O)C1)N1CC(=O)NC(=O)C1`, the T/C is, setting by setting: (endpoint: median survival time, dose: 8.0 mg/kg/injection, schedule: Q01DX009 (ip), vehicle: water) 104 % of control; (endpoint: median survival time, dose: 16.0 mg/kg/injection, schedule: Q01DX009 (ip), vehicle: water) 119 % of control; (endpoint: median survival time, dose: 32.0 mg/kg/injection, schedule: Q01DX009 (ip), vehicle: water) 119 % of control and 124 % of control; (endpoint: median survival time, dose: 256.0 mg/kg/injection, schedule: Q01DX009 (ip), vehicle: water) 118 % of control; (endpoint: median survival time, dose: 512.0 mg/kg/injection, schedule: Q01DX009 (ip), vehicle: water) 113 % of control.
In the case of `COc1cc(NS(C)(=O)=O)ccc1Nc1c2ccccc2nc2c(C)cccc12`, the T/C is 100 % of control and 114 % of control (endpoint: mean survival time, dose: 2.5 mg/kg/injection, schedule: Q01DX009 (ip), vehicle: saline); 108 % of control and 103 % of control (endpoint: mean survival time, dose: 5.0 mg/kg/injection, schedule: Q01DX009 (ip), vehicle: saline); 99 % of control (endpoint: mean survival time, dose: 10.0 mg/kg/injection, schedule: Q01DX009 (ip), vehicle: saline).
Regarding `CS(=O)(=O)OCCCNCCCOS(C)(=O)=O`, the T/C reads like this: (endpoint: median survival time, dose: 15.0 mg/kg/injection, schedule: Q01DX009 (sc), vehicle: saline) 111 % of control; (endpoint: median survival time, dose: 30.0 mg/kg/injection, schedule: Q01DX009 (sc), vehicle: saline) 108 % of control; (endpoint: median survival time, dose: 39.0 mg/kg/injection, schedule: Q04DX003 (ip), vehicle: saline) 118 % of control; (endpoint: median survival time, dose: 180.0 mg/kg/injection, schedule: Q04DX003 (ip), vehicle: saline) 93 % of control.

The values above are taken from PubChem BioAssay AID250 (DTP/NCI, 2004).
